Measurements: paper PMC9686514, “Design of Antimicrobial Peptides with Cell-Selective Activity and Membrane-Acting Mechanism against Drug-Resistant Bacteria” (Antibiotics, 2022)
Where no end group is shown, it is not given here.

Experiments:
Assay type in all cases: cell-based
[1] = system: Escherichia coli (ATCC 25922); details: ATCC 25922, 24 h, pH 7.2
Text: (§1) Pseudomonas aeruginosa (ATCC 15692), Escherichia coli (ATCC 25922), and Staphylococcus aureus (ATCC 25923) were purchased from the American Type Culture Collection. Listeria monocytogens (KCTC 3710) and Bacillus subtilis (KCTC 1998) were from the Korean Collection for Type Cultures. Drug-resistant S. aureus (DRSa-001~005) and P. aeruginosa (DRPa-001~005) were collected from Paik Hospital of Inje University in Busan, South Korea. Pre-cultured bacteria grown to mid-log phase were suspended in 10 mM sodium phosphate (SP, pH 7.2) or phosphate-buffered saline (PBS, pH 7.2) with 10% culture media. Bacterial suspensions were added to each peptide dilute (final 5 × 10^5 colony-forming units (cfu)/mL), after which the plates were incubated at 37 °C for 24 h. The turbidity of each well was measured at the absorbance at 600 nm and the morphology of bacterial growth was observed under light microscopy. MICs (Minimum inhibitory concentrations) were defined as the lowest concentration of peptide that expresses the complete inhibition of bacterial growth.

[2] = system: Listeria monocytogenes (KCTC 3710); details: KCTC 3710, 24 h, pH 7.2
Text: as §1

[3] = system: Bacillus subtilis (KCTC 1998); details: KCTC 1998, 24 h, pH 7.2
Text: as §1

[4] = system: Pseudomonas aeruginosa (ATCC 15692); details: ATCC 15692, 24 h, pH 7.2
Text: as §1

[5] = system: Staphylococcus aureus (ATCC 25923); details: ATCC 25923, 24 h, pH 7.2
Text: as §1

[6] = system: rat red blood cells; experiment: Hemolysis; details: 6.25 µM; 8% (v/v) rat RBCs in PBS, 1 h, 37 °C, absorbance 414 nm
Description: Fresh rat erythrocytes were collected and washed by centrifugation at 1000× g for 10 min with PBS. The rat RBCs (8% (v/v)) were added in a two-fold serially diluted peptide with PBS, followed by incubation for 1 h at 37 °C. After centrifugation of samples at 1000× g for 10 min, the supernatants were collected and their absorbance was measured at 414 nm. The 8% RBCs dissolved in PBS and RBCs treated with Triton X-100 were considered as the negative and positive controls, respectively. The hemolysis activity was calculated using the formula, % hemolysis = [(Abssample − Absnegative)/(Abspositive − Absnegative)] × 100 [43, 44].

[7] = system: HaCaT (human keratinocyte) cells; experiment: Cytotoxicity (MTT); details: 200 µM, 24 h, 37 °C
Description: To examine the cytotoxic effect of peptides, HaCaT (human keratinocyte) cells were sub-cultured in Dulbecco’s modified Eagle medium (DMEM) containing 10% fetal bovine serum, 100 µg/mL streptomycin, and 100 U/mL penicillin at 37 °C in a 5% CO2 chamber. The cells seeded into 4 × 10^3 cells/well were incubated for 24 h. Peptide solutions diluted with DMEM were incubated with cells for 24 h at 37 °C. 3-(4,5-Dimethyl-2-thiazolyl)-2,5-diphenyltetrazolium Bromide (MTT) solution was added to the cells, followed by additional incubation for 4 h. After removing the media, 200 µL of dimethyl sulfoxide was added to the wells. Absorbance of each well was measured at 570 nm using a microtiter reader (Molecular Devices Emax, CA, USA).

MIC, Ec [1]	MIC, Ec (numbers in parentheses) [1]	MIC, Lm [2]	MIC, Lm (numbers in parentheses) [2]	MIC, Bs [3]	MIC, Bs (numbers in parentheses) [3]	MIC, Pa [4]	MIC, Pa (numbers in parentheses) [4]	MIC, Sa [5]	MIC, Sa (numbers in parentheses) [5]	Compound	Hemolytic effect [6]	Cell survival [7]
4(4) μM	4(4) μM	0.5 µM	1 µM	1(1) μM	1(1) μM	2(2) μM	2(2) μM	2((2) μM	2((2) μM	WIKKIWKKIIKKIK-NH2 [WIK-14]		
4 µM	64 µM	4 µM	8 µM	2 µM	8 µM	8 µM	32 µM	16 µM	128 µM	WIKKIWKKIIKEIK-NH2 [WIKE-14]		
2 µM	4 µM	2(2) μM	2(2) μM	1(1) μM	1(1) μM	4 µM	8 µM	4 µM	8 µM	WIRRIWRRIR-NH2 [WIR-10]		
8 µM	32 µM	2 µM	16 µM	2 µM	8 µM	8 µM	32 µM	8 µM	64 µM	WIKKIWKKIK-NH2 [WIK-10]		

The remaining lines, values behind:

Compound	MIC, Ec [1]	MIC, Ec (numbers in parentheses) [1]	MIC, Lm [2]	MIC, Lm (numbers in parentheses) [2]	MIC, Bs [3]	MIC, Bs (numbers in parentheses) [3]	MIC, Pa [4]	MIC, Pa (numbers in parentheses) [4]	MIC, Sa [5]	MIC, Sa (numbers in parentheses) [5]	Hemolytic effect [6]	Cell survival [7]
CC[C@H](C)[C@H](NC(=O)CN)C(=O)NCC(=O)N[C@@H](C)C(=O)N[C@H](C(=O)N[C@@H](CC(C)C)C(=O)N[C@@H](CCCCN)C(=O)N[C@H](C(=O)N[C@@H](CC(C)C)C(=O)N[C@H](C(=O)N[C@H](C(=O)NCC(=O)N[C@@H](CC(C)C)C(=O)N1CCC[C@H]1C(=O)N[C@@H](C)C(=O)N[C@@H](CC(C)C)C(=O)N[C@H](C(=O)N[C@@H](CO)C(=O)N[C@@H](Cc1c[nH]c2ccccc12)C(=O)N[C@H](C(=O)N[C@@H](CCCCN)C(=O)N[C@@H](CCCNC(=N)N)C(=O)N[C@@H](CCCCN)C(=O)N[C@@H](CCCNC(=N)N)C(=O)N[C@@H](CCC(N)=O)C(=O)N[C@@H](CCC(N)=O)C(N)=O)[C@@H](C)CC)[C@@H](C)CC)[C@@H](C)O)[C@@H](C)O)C(C)C)C(C)C [Melittin]											strong hemolytic effect	less than 20%
KKIWKKWIKI-NH2 [KWI-10]	8 µM	64 µM	2 µM	64 µM	2 µM	32 µM	16 µM	64 µM	16 µM	128 µM		
KKIIKKIIKKIWKW-NH2 [KIW-14]	4(4) μM	4(4) μM	0.5 µM	1 µM	1 µM	2 µM	2(2) μM	2(2) μM	4 µM	8 µM		
KKIWKKWIKKIIKI-NH2 [KWI-14]	4(4) μM	4(4) μM	0.5 µM	1 µM	1 µM	2 µM	2(2) μM	2(2) μM	4 µM	8 µM		
RRIIRRIWRW-NH2 [RIW-10]	8 µM	16 µM	2 µM	8 µM	2 µM	4 µM	16 µM	32 µM	8 µM	16 µM		
KKIIKKIWKW-NH2 [KIW-10]	8 µM	64 µM	4 µM	128 µM	4 µM	32 µM	16 µM	64 µM	16 µM	128 µM		
RRIWRRWIRI-NH2 [RWI-10]	2 µM	4 µM	2 µM	8 µM	1 µM	4 µM	16 µM	32 µM	8 µM	16 µM		
